{"source": "ChEMBL document CHEMBL1142066", "about": "“In vitro effects of antimicrobial agents on planktonic and biofilm forms of Staphylococcus lugdunensis clinical isolates” (2007)", "format_in_all_cases": "functional", "key": {"[1]": {"tested_on": "Staphylococcus lugdunensis", "assay": "Antimicrobial susceptibility of Staphylococcus lugdunensis IDRL2414 biofilms after 24 hrs assessed as bacterial regrowth"}, "[2]": {"tested_on": "Staphylococcus lugdunensis", "assay": "Antimicrobial susceptibility of Staphylococcus lugdunensis IDRL5254 biofilms after 24 hrs assessed as bacterial regrowth"}, "[3]": {"tested_on": "Staphylococcus lugdunensis", "assay": "Antimicrobial susceptibility of Staphylococcus lugdunensis IDRL2622 biofilms after 24 hrs assessed as bacterial regrowth"}, "[4]": {"tested_on": "Staphylococcus lugdunensis", "assay": "Effect on biofilm formation of Staphylococcus lugdunensis assessed as percent non-biofilm forming isolates", "design": "concentration or dose not given beside the values"}, "[5]": {"tested_on": "Staphylococcus lugdunensis", "assay": "Antimicrobial susceptibility of Staphylococcus lugdunensis IDRL2394 isolate from prosthetic joint infection patient by broth microdilution method"}, "[6]": {"tested_on": "Staphylococcus lugdunensis", "assay": "Antimicrobial susceptibility of Staphylococcus lugdunensis IDRL5256 biofilms after 24 hrs assessed as bacterial regrowth"}, "[7]": {"tested_on": "Staphylococcus lugdunensis", "assay": "Ratio of MBC to MIC for Staphylococcus lugdunensis IDRL5256 isolate from prosthetic joint infection patient by broth microdilution method"}, "[8]": {"tested_on": "Staphylococcus lugdunensis", "assay": "Antimicrobial susceptibility of Staphylococcus lugdunensis IDRL2394 biofilms after 24 hrs assessed as bacterial regrowth"}, "[9]": {"tested_on": "Staphylococcus lugdunensis", "assay": "Antimicrobial susceptibility of Staphylococcus lugdunensis IDRL856 biofilms after 24 hrs assessed as bacterial regrowth"}, "[10]": {"tested_on": "Staphylococcus lugdunensis", "assay": "Antimicrobial susceptibility of Staphylococcus lugdunensis IDRL5254 isolate from intravascular catheter infection patient by broth microdilution method"}, "[11]": {"tested_on": "Staphylococcus lugdunensis", "assay": "Antimicrobial susceptibility of Staphylococcus lugdunensis IDRL2492 biofilms after 24 hrs assessed as bacterial regrowth"}, "[12]": {"tested_on": "Staphylococcus lugdunensis", "assay": "Antimicrobial susceptibility of Staphylococcus lugdunensis IDRL2640 biofilms after 24 hrs assessed as bacterial regrowth"}, "[13]": {"tested_on": "Staphylococcus lugdunensis", "assay": "Antimicrobial susceptibility of Staphylococcus lugdunensis isolates by broth microdilution method"}, "[14]": {"tested_on": "Staphylococcus lugdunensis", "assay": "Antimicrobial susceptibility of Staphylococcus lugdunensis IDRL5258 biofilms after 24 hrs assessed as bacterial regrowth"}, "[15]": {"tested_on": "Staphylococcus lugdunensis", "assay": "Antimicrobial susceptibility of Staphylococcus lugdunensis IDRL2664 biofilms after 24 hrs assessed as bacterial regrowth"}, "[16]": {"tested_on": "Staphylococcus lugdunensis", "assay": "Increase in biofilm formation of Staphylococcus lugdunensis assessed as percent biofilm forming isolates"}, "[17]": {"tested_on": "Staphylococcus lugdunensis", "assay": "Antimicrobial susceptibility of Staphylococcus lugdunensis IDRL5256 isolate from prosthetic joint infection patient by broth microdilution method"}, "[18]": {"tested_on": "Staphylococcus lugdunensis", "assay": "Decrease in biofilm formation of Staphylococcus lugdunensis assessed as percent biofilm forming isolates", "design": "concentration or dose not given beside the values"}, "[19]": {"tested_on": "Staphylococcus lugdunensis", "assay": "Antimicrobial susceptibility of Staphylococcus lugdunensis IDRL2639 biofilms after 24 hrs assessed as bacterial regrowth"}, "[20]": {"tested_on": "Staphylococcus lugdunensis", "assay": "Antimicrobial susceptibility of Staphylococcus lugdunensis IDRL5204 biofilms after 24 hrs assessed as bacterial regrowth"}, "[21]": {"tested_on": "Staphylococcus lugdunensis", "assay": "Antimicrobial susceptibility of Staphylococcus lugdunensis IDRL2526 biofilms after 24 hrs assessed as bacterial regrowth"}, "[22]": {"tested_on": "Staphylococcus lugdunensis", "assay": "Antimicrobial susceptibility of Staphylococcus lugdunensis IDRL2588 biofilms after 24 hrs assessed as bacterial regrowth"}, "[23]": {"tested_on": "Staphylococcus lugdunensis", "assay": "Antimicrobial susceptibility of Staphylococcus lugdunensis IDRL2554 biofilms after 24 hrs assessed as bacterial regrowth"}}, "data": [{"smiles": "CN[C@H](CC(C)C)C(=O)N[C@H]1C(=O)N[C@@H](CC(N)=O)C(=O)N[C@H]2C(=O)N[C@H]3C(=O)N[C@H](C(=O)N[C@H](C(=O)O)c4cc(O)cc(O)c4-c4cc3ccc4O)[C@H](O)c3ccc(c(Cl)c3)Oc3cc2cc(c3O[C@@H]2O[C@H](CO)[C@@H](O)[C@H](O)[C@H]2O[C@H]2C[C@](C)(N)[C@H](O)[C@H](C)O2)Oc2ccc(cc2Cl)[C@H]1O", "note": "[VANCOMYCIN]", "values": [{"measurement": "BBC", "setting": "[1]", "result": ">128", "unit": "µg/mL"}, {"measurement": "BBC", "setting": "[2]", "result": ">128", "unit": "µg/mL"}, {"measurement": "BBC", "setting": "[3]", "result": ">128", "unit": "µg/mL"}, {"measurement": "Activity", "setting": "[4]", "result": 47, "unit": "%"}, {"measurement": "MBC", "setting": "[5]", "result": 64, "unit": "µg/mL"}, {"measurement": "BBC", "setting": "[6]", "result": ">128", "unit": "µg/mL"}, {"measurement": "Ratio", "setting": "[7]", "result": ">=64"}, {"measurement": "BBC", "setting": "[8]", "result": ">128", "unit": "µg/mL"}, {"measurement": "BBC", "setting": "[9]", "result": ">128", "unit": "µg/mL"}, {"measurement": "MBC", "setting": "[10]", "result": 64, "unit": "µg/mL"}, {"measurement": "BBC", "setting": "[11]", "result": ">128", "unit": "µg/mL"}, {"measurement": "BBC", "setting": "[12]", "result": ">128", "unit": "µg/mL"}, {"measurement": "MBC50", "setting": "[13]", "result": ">128", "unit": "µg/mL"}, {"measurement": "MBC90", "setting": "[13]", "result": ">128", "unit": "µg/mL"}, {"measurement": "MIC50", "setting": "[13]; Staphylococcus lugdunensis", "result": 1, "unit": "µg/mL"}, {"measurement": "MIC90", "setting": "[13]; Staphylococcus lugdunensis", "result": 2, "unit": "µg/mL"}, {"measurement": "BBC", "setting": "[14]", "result": ">128", "unit": "µg/mL"}, {"measurement": "BBC", "setting": "[15]", "result": 8, "unit": "µg/mL"}, {"measurement": "Activity", "setting": "[16]", "result": 27, "unit": "%"}, {"measurement": "MBC", "setting": "[17]", "result": 4, "unit": "µg/mL"}, {"measurement": "Activity", "setting": "[18]", "result": 27, "unit": "%"}, {"measurement": "BBC", "setting": "[19]", "result": ">128", "unit": "µg/mL"}, {"measurement": "BBC", "setting": "[20]", "result": 4, "unit": "µg/mL"}, {"measurement": "BBC", "setting": "[21]", "result": ">128", "unit": "µg/mL"}, {"measurement": "BBC", "setting": "[22]", "result": ">128", "unit": "µg/mL"}, {"measurement": "BBC", "setting": "[23]", "result": 4, "unit": "µg/mL"}]}]}
